Read-outs that look alike come from different tables or passages of the source.
Biological target: human Plasma Kallikrein (Homo sapiens (Human), UniProt P03952)
Test: In vitro enzyme inhibition of human plasma kallikrein (PFR-AMC cleavage)
Format: biochemical
Experimental: The ability of the compounds disclosed herein to inhibit human plasma kallikrein activity was quantified according to the procedures below.
A 10 mM solution of the test compound was made in DMSO. […] A control tube containing only DMSO is included. 16 μL of each compound test solution was combined with 384 μL of assay buffer (50 mM Tris-HCl pH 7.5, 150 mM NaCl, 0.01% Triton X-100) to yield a “4× test compound buffer stock”.
These solutions are hereby referred to as 4×hPK and 2×PFR-AMC, respectively.
50 μL was removed from this mixture and placed into duplicate wells on a Microfluor 1Black U-bottom microtiter plate (Thermo Scientific). This plate was incubated for 5 minutes at 37° C. To each well, 50 μL of pre-warmed 2×PFR-AMC was added to start the enzymatic reaction. Cleavage of PFR-AMC was monitored in a Biotek Synergy H4 reader set at 37° C. Readings are taken every 43 seconds for 1 hour. […] The IC50 is calculated using the Gen5 (Biotek Instruments).
The ability of the compounds in Table 3 to inhibit human plasma kallikrein activity was determined.

[1] = human plasma kallikrein, Pro-Phe-Arg-AMC substrate, 37° C., read-out: hPK IC50

human Plasma Kallikrein, sequence (P03952 20-638): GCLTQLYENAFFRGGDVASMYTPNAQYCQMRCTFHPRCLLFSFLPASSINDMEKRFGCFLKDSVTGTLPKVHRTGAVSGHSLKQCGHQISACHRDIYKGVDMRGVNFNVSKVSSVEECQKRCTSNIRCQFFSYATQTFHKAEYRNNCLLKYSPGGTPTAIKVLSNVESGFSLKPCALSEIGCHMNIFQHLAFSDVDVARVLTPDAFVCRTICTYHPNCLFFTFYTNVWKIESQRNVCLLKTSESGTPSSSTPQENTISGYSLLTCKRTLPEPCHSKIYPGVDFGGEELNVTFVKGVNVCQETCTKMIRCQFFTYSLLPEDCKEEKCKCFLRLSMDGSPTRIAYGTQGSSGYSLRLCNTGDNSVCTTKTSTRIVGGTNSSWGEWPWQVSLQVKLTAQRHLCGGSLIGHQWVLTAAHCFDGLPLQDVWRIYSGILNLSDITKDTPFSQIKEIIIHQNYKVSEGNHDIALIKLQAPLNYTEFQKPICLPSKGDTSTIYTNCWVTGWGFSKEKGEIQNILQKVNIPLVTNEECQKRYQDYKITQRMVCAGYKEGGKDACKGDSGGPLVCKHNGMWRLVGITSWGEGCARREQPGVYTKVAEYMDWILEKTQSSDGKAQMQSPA

Structure (SMILES) | IC50 [1] | IC50
Cc1cc(N)ncc1CNC(=O)c1ccnc(Cc2cc(C(N)=O)c3ncc(Cl)cc3c2)c1 [Example 63, 6-((4-(((6-amino-4-methylpyridin-3-yl)methyl)carbamoyl)pyridin-2-yl)methyl)-3-chloroquinoline-8-carboxamide] | < 100 nM | 
CC(=O)NCc1ccc2cc(Cc3cc(C(=O)NCc4c(C)cc(N)nc4C)ccn3)ccc2n1 [Example 11, 2-[2-(acetylamino-methyl)-quinolin-6-ylmethyl]-N-(6-amino-2,4-dimethyl-pyridin-3-ylmethyl)-isonicotinamide] | 100 to 1000 nM | 
Cc1cc(N)nc(C)c1CNC(=O)c1ccnc(Cn2ccc3cc(Cl)ccc3c2=O)c1 [Example 23, N-((6-amino-2,4-dimethylpyridin-3-yl)methyl)-2-((6-chloro-1-oxoisoquinolin-2(1H)-yl)methyl)isonicotinamide] | 1000 to 10000 nM | 
Cc1nc(N)c(Cl)cc1CNC(=O)c1ccnc(Cc2ccc3ncc(Cl)cc3c2)c1 [Example 28, N-((6-amino-5-chloro-2-methylpyridin-3-yl)methyl)-2-((3-chloroquinolin-6-yl)methyl)isonicotinamide] | 1000 to 10000 nM | 
Cc1cnc2c(C#N)cc(Cc3cc(C(=O)NCc4cc5cc[nH]c5cc4F)ccn3)cc2c1 [Example 76, 2-((8-cyano-3-methylquinolin-6-yl)methyl)-N-((6-fluoro-1H-indol-5-yl)methyl)isonicotinamide] | < 100 nM | 
CNc1ccc(CNC(=O)c2ccnc(Cc3ccc4ncc(Cl)cc4c3)c2)c(C)n1 [Example 42, 2-((3-chloroquinolin-6-yl)methyl)-N-((2-methyl-6-(methylamino)pyridin-3-yl)methyl)isonicotinamide] | 100 to 1000 nM | 
Cc1cnc2c(C#N)cc(Cc3cc(C(=O)NCc4n[nH]c5ccc(Cl)cc45)ccn3)cc2c1 [Example 75, N-((5-chloro-1H-indazol-3-yl)methyl)-2-((8-cyano-3-methylquinolin-6-yl)methyl)isonicotinamide] | < 100 nM | 
Cc1cc(N)nc(C)c1CNC(=O)c1ccnc(Cc2cc(CO)c3ncc(Cl)cc3c2)c1 [Example 94, N-((6-amino-2,4-dimethylpyridin-3-yl)methyl)-2-((3-chloro-8-(hydroxymethyl)quinolin-6-yl)methyl)isonicotinamide] | < 100 nM | 
Cc1nc(N)ccc1CNC(=O)c1ccnc(Cn2cc3cc(Cl)ccc3cc2=O)c1 [Example 86, N-((6-amino-2-methylpyridin-3-yl)methyl)-2-((7-chloro-3-oxoisoquinolin-2(3H)-yl)methyl)isonicotinamide] | 100 to 1000 nM | 
Cc1cc(N)ncc1CNC(=O)c1ccnc(Cc2cc(C#N)c3ncc(Cl)cc3c2)c1 [Example 53, N-((6-amino-4-methylpyridin-3-yl)methyl)-2-((3-chloro-8-cyanoquinolin-6-yl)methyl)isonicotinamide] |  | 100 to 1000 nM
CC(=O)NCc1ccc2cc(Cc3cc(C(=O)NCc4ccc5c(N)nccc5c4)ccn3)ccc2n1 [Example 10, 2-[2-(acetylamino-methyl)-quinolin-6-ylmethyl]-N-(1-amino-isoquinolin-6-ylmethyl)-isonicotinamide] | 100 to 1000 nM | 
Nc1nccc2cc(CNC(=O)c3ccnc(Cc4cnc5ccc(F)cc5n4)c3)ccc12 [Example 8, N-((1-aminoisoquinolin-6-yl)methyl)-2-((7-fluoroquinoxalin-2-yl)methyl)isonicotinamide] | 100 to 1000 nM | 
N#Cc1cc(Cc2cc(C(=O)NCc3cc4cc[nH]c4cc3F)ccn2)cc2cc(Cl)cnc12 [Example 52, 2-((3-chloro-8-cyanoquinolin-6-yl)methyl)-N-((6-fluoro-1H-indol-5-yl)methyl)isonicotinamide] | < 100 nM | 
Cc1cc(N)nc(C)c1CNC(=O)c1ccnc(Cc2ccc3[nH]cc(Cl)c3c2)c1 [Example 24, N-((6-amino-2,4-dimethylpyridin-3-yl)methyl)-2-((3-chloro-1H-indol-5-yl)methyl)isonicotinamide] | 100 to 1000 nM | 
COC(=O)c1cc(Cc2cc(C(=O)NCc3ccc(N)nc3C)ccn2)cc2cc(Cl)cnc12 [Example 95, methyl 6-((4-(((6-amino-2-methylpyridin-3-yl)methyl)carbamoyl)pyridin-2-yl)methyl)-3-chloroquinoline-8-carboxylate] | < 100 nM | 
Cc1cc(N)ncc1CNC(=O)c1ccnc(Cc2ccc3ncc(Cl)cc3c2)c1 [Example 29, N-((6-amino-4-methylpyridin-3-yl)methyl)-2-((3-chloroquinolin-6-yl)methyl)isonicotinamide] | < 100 nM | 
Nc1ccc(CNC(=O)c2ccnc(Cc3ccc4ncc(Cl)cc4c3)c2)c(C2CC2)n1 [Example 43, N-((6-amino-2-cyclopropylpyridin-3-yl)methyl)-2-((3-chloroquinolin-6-yl)methyl)isonicotinamide] | 100 to 1000 nM | 
Cc1cc(N)nc(C)c1CNC(=O)c1ccnc(Cc2ccc3nc(C(N)=O)ccc3c2)c1 [Example 2, 6-((4-(((6-amino-2,4-dimethylpyridin-3-yl)methyl)carbamoyl)pyridin-2-yl)methyl)quinoline-2-carboxamide] | 100 to 1000 nM | 

Now from value to molecule, other results behind:

IC50 [1] | Structure (SMILES) | IC50
100 to 1000 nM | Cc1ccc2nn(Cc3cc(C(=O)NCc4c(C)cc(N)nc4C)ccn3)cc2c1 [Example 107, N-((6-amino-2,4-dimethylpyridin-3-yl)methyl)-2-((5-methyl-2H-indazol-2-yl)methyl)isonicotinamide] | 
< 100 nM | Cc1nc(N)ccc1CNC(=O)c1ccnc(Cc2cnc3ccc(F)cc3c2)c1 [Example 121, N-((6-amino-2-methylpyridin-3-yl)methyl)-2-((6-fluoroquinolin-3-yl)methyl)isonicotinamide] | 
100 to 1000 nM | N#Cc1ccnc2ccc(Cc3cc(C(=O)NCc4cc5c(Cl)c[nH]c5cc4F)ccn3)cc12 [Example 137, N-((3-chloro-6-fluoro-1H-indol-5-yl)methyl)-2-((4-cyanoquinolin-6-yl)methyl)isonicotinamide] | 
< 100 nM | Cc1cc(N)nc(C)c1CNC(=O)c1ccnc(Cn2ncc3cc(Cl)ccc32)c1 [Example 105, N-((6-amino-2,4-dimethylpyridin-3-yl)methyl)-2-((5-chloro-1H-indazol-1-yl)methyl)isonicotinamide] | 
< 100 nM | Nc1nccc2cc(CNC(=O)c3ccnc(Cc4cnc5cc(F)ccc5c4)c3)ccc12 [Example 124, N-((1-aminoisoquinolin-6-yl)methyl)-2-((7-fluoroquinolin-3-yl)methyl)isonicotinamide] | 
< 100 nM | O=C(NCc1cc2c(Cl)c[nH]c2cc1F)c1ccnc(Cc2cnc3ccc(Cl)cc3c2)c1 [Example 126, N-((3-chloro-6-fluoro-1H-indol-5-yl)methyl)-2-((6-chloroquinolin-3-yl)methyl)isonicotinamide] | 
< 100 nM | N#Cc1ccnc2ccc(Cc3cc(C(=O)NCc4ccc5c(N)nccc5c4)ccn3)cc12 [Example 136, N-((1-aminoisoquinolin-6-yl)methyl)-2-((4-cyanoquinolin-6-yl)methyl)isonicotinamide] | 
< 100 nM | Cc1ccc2cc(Cc3cc(C(=O)NCc4ccc(N)nc4C)ccn3)ccc2n1 [Example 112, N-((6-amino-2-methylpyridin-3-yl)methyl)-2-((2-methylquinolin-6-yl)methyl)isonicotinamide] | 
< 100 nM | Cc1nc(N)ccc1CNC(=O)c1ccnc(Cc2cc(CO)c3ncc(Cl)cc3c2)c1 [Example 97, N-((6-amino-2-methylpyridin-3-yl)methyl)-2-((3-chloro-8-(hydroxymethyl)quinolin-6-yl)methyl)isonicotinamide] | 
< 100 nM | Cc1cc(N)nc(C)c1CNC(=O)c1ccnc(Cc2ccc3nc(C#N)ccc3c2)c1 [Example 131, N-(6-amino-2,4-dimethyl-pyridin-3-ylmethyl)-2-(2-cyano-quinolin-6-ylmethyl)-isonicotinamide] | 
100 to 1000 nM | CS(=O)(=O)c1ccc2cc(Cc3cc(C(=O)NCc4ccc5c(N)nccc5c4)ccn3)ccc2n1 [Example 134, N-((1-aminoisoquinolin-6-yl)methyl)-2-((2-(methylsulfonyl)quinolin-6-yl)methyl)isonicotinamide] | 
< 100 nM | Cc1nc(N)ccc1CNC(=O)c1ccnc(Cc2ccc3ncc(Cl)cc3c2F)c1 [Example 103, N-((6-amino-2-methylpyridin-3-yl)methyl)-2-((3-chloro-5-fluoroquinolin-6-yl)methyl)isonicotinamide] | 
< 100 nM | O=C(NCc1cc2c(Cl)c[nH]c2cc1F)c1ccnc(Cc2cnc3cc(F)ccc3c2)c1 [Example 123, N-((3-chloro-6-fluoro-1H-indol-5-yl)methyl)-2-((7-fluoroquinolin-3-yl)methyl)isonicotinamide] | 
< 100 nM | O=C(NCc1cc2c(Cl)c[nH]c2cc1F)c1ccnc(Cc2cnc3cc(Cl)ccc3c2)c1 [Example 140, N-((3-chloro-6-fluoro-1H-indol-5-yl)methyl)-2-((7-chloroquinolin-3-yl)methyl)isonicotinamide] | 
100 to 1000 nM | CS(=O)(=O)c1ccc2cc(Cc3cc(C(=O)NCc4cc5c(Cl)c[nH]c5cc4F)ccn3)ccc2n1 [Example 135, N-((3-chloro-6-fluoro-1H-indol-5-yl)methyl)-2-((2-(methylsulfonyl)quinolin-6-yl)methyl)isonicotinamide] | 
< 100 nM | Cc1nc(N)ccc1CNC(=O)c1ccnc(Cc2cc(Cl)c3ncc(Cl)cc3c2)c1 [Example 101, N-((6-amino-2-methylpyridin-3-yl)methyl)-2-((3,8-dichloroquinolin-6-yl)methyl)isonicotinamide] | 
